{
  "source": "patent US20160206633A1",
  "about": "“dhS1P AND USE OF SAME AS AN ANTICANCER THERAPEUTIC AND IMMUNOMODULATOR” (Penn State Research Foundation, Inc., priority 2013, published 2016)",
  "key": {"[1]": {"test_system": "sphingolipids in tumor and serum", "experiment": "Lipidomics (LC-MS3) of sphingolipids in tumors and serum of treated tumor-bearing mice", "assay_type": "in vivo", "settings": "generally", "experimental": "To explore how PhotoImmunoNanoTherapy could be regulating the immune system, an analysis of the “sphingolipidome” was studied in tumors and serum collected from treated tumor-bearing mice. As PhotoImmunoNanoTherapy modulated the immune system, and was efficacious in both athymic nude mice and BALB/cJ mice, in depth “sphingolipidomic” studies were performed in athymic nude mice bearing MDA-MB-231 tumors to focus more precisely on mediation of T-cell-independent immunity as well as BALB/cJ mice bearing 410.4 tumors (FIG. 5A-F). […] Intriguingly, an increase in tumor S1P was observed as a function of PhotoImmunoNanoTherapy in both models (FIG. 5D), as well as an increase in the precursor sphingosine in the athymic nude mouse model (MDA-MB-231 tumor) (FIG. 5C). […] Of particular interest, the mass levels of phosphorylated sphingolipid species were much higher in serum than in tumor tissue possibly reflective of a release of phosphorylated sphingolipids in response to PhotoImmunoNanoTherapy. Intriguingly, the increase in the amount of dhS1P was more dramatic than the increase in S1P. In the MDA-MB-231, BxPC-3, and SAOS-2-LM7 models there were a 65%, 79%, and 43% increase in dhS1P, respectively, and these compared with respective increases in S1P of only 29%, 27%, and 10%. […]"}, "[2]": {"test_system": "splenic IMCs (Gr-1+CD11b+, MDSCs) from MDA-MB-231 tumor-bearing athymic nude mice", "experiment": "Isolated IMCs/MDSCs exposed in culture to dhS1P or S1P, multicolor flow cytometry", "assay_type": "cell-based", "settings": "5 μM, 24-hour culture", "experimental": "(A) Splenic IMCs (Gr-1+CD11b+, also defined as MDSCs: myeloid-derived suppressor cells) were isolated from MDA-MB-231 tumor-bearing athymic nude mice and exposed to BSA, S1P (5 μM), or dhS1P (5 μM). Following 24-hour culture incubation, cells were labeled with specific antibodies and analyzed by multicolor flow cytometry (red: IMCs; blue: possible B-cells). (B) Splenic IMCs were isolated from MDA-MB-231 tumor-bearing athymic nude mice and cultured (5×10^4 cells/mL) in GEMM-supportive semi-solid media with BSA, S1P (5 μM), or dhS1P (5 μM). GEMM colonies (multipotent myeloid progenitor cells) were visualized and counted after 3 weeks of culture. ANOVA, *p<0.01 compared to no treatment or BSA-treatment, ***p<0.001 compared to S1P-treatment, n≧3. (C) Splenic hematopoietic progenitors (Lineage-Sca-1+CD117+) were isolated from MDA-MB-231 tumor-bearing athymic nude mice and exposed to BSA, S1P (5 μM), or dhS1P (5 μM). Following 24-hour culture incubation, cells were labeled with specific antibodies and analyzed by multicolor flow cytometry.\nThe effect of dhS1P was further investigated at the level of MDSC-like cells, which were reduced as a function of treatment. The effects of dhS1P were directly compared with those of S1P as to delineate a difference in their physiological roles. Tumor-expanded IMCs/MDSCs were isolated and exposed in culture to either dhS1P or S1P. […]"}, "[3]": {"test_system": "Gr-1+CD11b+ MDSC-like cells from MaFIA mice", "experiment": "Lineage tracing: MDSC-like cells from tumor-bearing MaFIA mice exposed to dhS1P, flow cytometry", "assay_type": "cell-based, MaFIA mice (C57BL/6J background)", "design": "dose or concentration left out as unconfirmed", "excerpt": "Gr-1+CD1 b+MDSC-like cells were isolated by high-speed cell sorting (85-95% purity) from the splenocytes of tumor-bearing MaFIA (Macrophage Fas-Induced Apoptosis) mice. These mice are on the C57BL/6J background and contain a transgene expressing both an inducible apoptosis feature as well as EGFP (enhanced green fluorescent protein). This transgene is expressed from the Csfr1 promoter (CD115), which restricts expression of the transgene to the myeloid lineage. Isolated MDSC-like cells were exposed to dhS1P ([…]) for 24 hours, and flow cytometry was performed to confirm both the disappearance of MDSC-like cells (Gr-1+CD11b+), and the appearance of a lymphocyte population (CD19+CD45R B220+). Lineage tracing using the EGFP feature of the transgene verified that dhS1P-induced lymphocytes (blue population) are EGFP negative and therefore not of myeloid-origin. This is in direct contrast with the EGFP positive MDSC-like cells (red population)."}},
  "data": [
    {"smiles": "CCCCCCCCCCCCCCC[C@@H](O)[C@@H](N)COP(=O)(O)O", "note": "[dhS1P, dihydrosphingosine-1-phosphate]", "values": [
      {"measurement": "Serum levels measured in the experiments", "setting": "[1]", "result": "around 0.005 mg/kg"},
      {"measurement": "Population of cells displaying CD19 and CD45R B220 in isolated IMC culture", "setting": "[2]", "result": "promoted the expansion"},
      {"measurement": "Cells bearing the surface characteristics of IMCs/MDSCs (Gr-1+CD11b+)", "setting": "[2]; normal culture conditions", "result": "completely ablated"},
      {"measurement": "Lymphocyte population (CD19+CD45R B220+)", "setting": "[3]", "result": "appearance"},
      {"measurement": "MDSC-like cells (Gr-1+CD11b+)", "setting": "[3]", "result": "disappearance"}
    ]}
  ]
}
